Results: patent US11679104B2, “Compositions and methods of enhancing the homing and/or engraftment of hematopoietic cells in the central nervous system” (Duke University, priority 2017, dated 2023)
“Also recorded” adds a separate entry of the source.

Test system: microglia
Assay: BMT with UBC-GFP bone marrow followed by PLX5622 chow: beMφ engraftment into the brain
Format: in vivo, mice
Conditions: for GFP+ beMφ engraftment in the brain: 1 week recovery, 6 weeks standard chow
Description: Mice were γ-irradiated with a lethal dose of 1000 rad. Four hours post irradiation, mice were intravenously injected with 5×10^6 bone marrow cells. Mice were given water supplemented with trimethoprim-sulfamethoxazole for two weeks and monitored daily for the first 4 days. A lead shield was placed over the head during irradiation in some experiments, as indicated.
To determine transcriptional and morphological changes of microglia and beMφ to an insult, mice were given a peripheral LPS challenge. Mice were first irradiated and given BMT with UBC-GFP bone marrow. To target microglia, head shielding was applied during irradiation in some mice. After 1 week of recovery, mice were treated with PLX 5622 for 2 weeks to deplete the brain macrophage niche then placed on standard chow for 6 weeks. Mice were injected with 50 μg LPS or saline (i.p.). 6 hours later, brains were removed and macrophages sorted by MACS on CD11B beads as described above.
We utilized the Csf1r inhibitor PLX5622 in chow, to eliminate irradiation-damaged, yet still viable, microglia. Mice were given BMT with UBC-GFP bone marrow with or without head covering during irradiation, followed by 1 week of recovery, 2 weeks of chow containing PLX5622, and finally 6 weeks of recovery on standard chow.
Our third model (see Example 2) was designed to take advantage of the synergistic effect on engraftment we had observed with the combination of CNS irradiation and Csf1r deletion in microglia. Instead of Csf1r deletion using our genetic model, we utilized the Csf1r inhibitor PLX5622 in chow, to eliminate the irradiation-damaged, yet still viable, microglia. Mice were given BMT with UBC-GFP bone marrow with or without head covering during irradiation, followed by 1 week of recovery, 2 weeks of chow containing PLX5622, and finally 6 weeks of recovery on standard chow. […] Due to the robust level of engraftment in this model, we sorted GFP+ beMφ from whole body irradiated mice and GFP microglia from head covered mice for RNA-seq. Mice were injected i.p. with saline or LPS 6 hours prior to cell collection. Microglia and beMφ were FACS sorted from mice with or without head-covering, respectively, and then RNA-seq followed by differential expression analysis was performed (n=3 microglia samples, pooled from 3 total mice for each sample, and n=3 beMφ samples, pooled from 3 total mice for each sample; performed once).

COc1ncc(F)cc1CNc1ccc(Cc2c[nH]c3ncc(C)cc23)c(F)n1 [PLX5622]
GFP+ beMφ engraftment in the brain (BMT with head covering during irradiation, 2 weeks PLX5622 chow): minimal GFP+ beMφ engraftment
repopulation of the CNS with endogenous microglia (BMT with head covering during irradiation, 2 weeks PLX5622 chow, then 6 weeks standard chow): effectively repopulated the CNS with endogenous microglia
GFP+ beMφ engraftment in the brain (BMT with whole body irradiation, 2 weeks PLX5622 chow): robust engraftment of GFP+ beMφ; also recorded: robust engraftment of GFP+ beMϕ
repopulation of microglia by beMφ (system of BMT and PLX5622 treatment for beMφ engraftment): substantial repopulation of microglia by beMϕ
potentiation of engraftment of hematopoietic-derived macrophages into the brains of mice (used as part of a protocol that clears the microglial niche): can potentiate engraftment
